Assays:
[1] = isolated or synthetic CBD; cited from earlier work
[2] = system: neuronal cultures exposed to glutamate; conditions: in vitro, isolated or synthetic CBD; cited from earlier work
[3] = system: shin splits, sciatica tight muscles, aching back pains, and circulation issues; experiment: Example 12 case report: soaking body in magnesium sulfate with or without Reishi spore powder; format: in vivo, human; conditions: body soaked 30 minutes in 20 gallons of hot water, 1 cup Magnesium sulfate
Description: The person tried soaking body in 1 cup of Magnesium sulfate with 20 gallons of hot water for 30 minutes. […] After 72 hours, the person soaked their body in 20 gallons of hot water comprising 1 cup of Magnesium sulfate in combination with 1000 mg of Reishi Mushroom Spore Powder, for 30 minutes.

SMILES	difference between treated animals and placebo [1]	prevention of toxicity of glutamate [2]	improvement noticed (pain relief, sleep, mood, circulation, dexterity) [3]
C=C(C)[C@@H]1CCC(C)=C[C@H]1c1c(O)cc(CCCCC)cc1O [CBD, cannabidiol]	failed to find a difference	could be prevented to some extent	
O=S(=O)([O-])[O-].[Mg+2] [Magnesium sulfate]			slight improvement

Source: US20250064874A1, “Mushroom Spore, Cannabinoid, and Specified Compositions” (priority 2023, published 2025)
